Measurements taken from a melting point compilation (Tetko et al.).

SMILES	melting point
CCCC(=NOCC)C1=C(O)CC(C2CCCSC2)CC1=O (stereo unspecified)	37.1 °C
Cn1cncc1C=O	55 °C
N#CCc1c(Cl)cccc1Cl	76 °C
Cc1ccc(/C=N/c2nc(C(F)(F)F)n[nH]2)cc1	207 to 209 °C
CC1CCC(C(C)C)C(OC(=O)C2=CCC(C(=O)OC3CC(C)CCC3C(C)C)CC2)C1 (stereo unspecified)	125 °C
Cc1cc(C)c2c(=O)n3c(cc2c1)CCCC3	62 °C
CC(C)(SC(=O)N1CCCCC1)c1ccccc1	39.1 °C
O=C1C(Br)=C(Br)C(=O)C(Br)=C1Br	292 to 294 °C
CC(C)SC1OC(CO)C(O)C(O)C1O (stereo unspecified)	121 °C
CCc1nc(N)nc(Cl)c1C	138 to 140 °C
c1ccc2c(c1)OCCOCCOCCO2	48 to 50 °C
COc1cc([N+](=O)[O-])ccc1N1CCCC1	60 °C
COC(=O)c1scc(C#N)c1N	149 to 150 °C
O=C(O)C(F)(F)C(F)(F)C(F)(F)C(F)(F)C(F)(F)C(F)(F)C(F)(F)C(F)(F)C(F)(F)C(F)(F)C(F)(F)F	112 to 114 °C
CCOc1cc(OP(=S)(OC)OC)nc(CC)n1	-3.35 °C
O=C(O)CC(F)(F)C(=O)O	142 °C
CN1C(=O)C(=NNc2cccc(Cl)c2)C(=O)N(C)C1=O	202 °C
C#CCOc1cc(-n2nc3n(c2=O)CCCC3)c(Cl)cc1Cl	168 °C
CNC(=O)Oc1ccc(N(C)C)c(C)c1	93.9 °C
CC12CCC(C=CC1=O)C2(C)C (stereo unspecified)	174 °C
COC(=O)CCC(C)C1CCC2C3C(O)C(O)C4CCCCC4(C)C3CCC12C (stereo unspecified)	120 to 121 °C
C=C1C(=O)C23C(OC)CC4C5(C)CCCC4(COC5=O)C2C(OC(C)=O)CC1C3O (stereo unspecified)	126 to 127 °C
Brc1cc(Br)c(Oc2c(Br)cc(Br)c(Br)c2Br)cc1Br	171 to 173 °C
Nc1c(Cl)cc(Cl)cc1I	80 °C
O=C(Nc1ccccc1[N+](=O)[O-])C(F)(F)C(F)(F)C(F)(F)C(F)(F)C(F)(F)C(F)(F)C(F)(F)C(F)(F)F	94 °C

SMILES	melting point
CC12CCC(c3c(Br)cc(=O)oc31)C2(C)C (stereo unspecified)	105 °C
Brc1cccnc1Br	59 °C
O=C(O)c1cc(=O)[nH]c(=O)[nH]1	345 °C
CSc1nc(=O)n(C2CCCCC2)c2c1CCC2	192 to 194 °C
CC(=O)NCCc1ccccc1	48 to 52 °C
FC1(F)C(F)(F)C(F)(F)C2(F)C(F)(F)C(F)(F)C(F)(F)C(F)(F)C2(F)C1(F)F (stereo unspecified)	-10 °C
CC1CC1C (stereo unspecified)	-141 °C
Cc1ccc(N2CCNCC2)cc1C	63 °C
C#CC1(O)CCC2(C)C(C1)CC1(OCCO1)C1C3CCC(=O)C3(C)CCC12 (stereo unspecified)	308 °C
CC1(C)C2CCC1(C)C(C(=O)O)OC2=O (stereo unspecified)	201 °C
C=C1C2CC(CC2NS(=O)(=O)c2ccc(C)cc2)C1(C)C (stereo unspecified)	110 to 114 °C
CC(C)c1cc(C(C)C)c(S(=O)(=O)N=[N+]=[N-])c(C(C)C)c1	42 °C
O=C(O)c1scc2c1CCCC2	203 to 205 °C
O=C(O)c1ncccc1N1CCCCC1	102 to 109 °C
C=CCCCCCCC(=O)O	5 °C
Nc1cc(Cl)c(Cl)cc1N	162 to 163 °C
Cc1cc(C(=O)O)c(C(F)(F)F)o1	124 to 126 °C
Cc1cncc(C)n1	47.5 °C
S=c1[nH]ccn1-c1ccccc1	177 to 179 °C
Cn1cc(Br)c(C(=O)Cl)n1	131 to 133 °C
COc1cc(Br)c(C=O)cc1OC	150 °C
O=C(O)[C@H](Cc1ccccc1)NC(=O)C(F)(F)F	126 to 127 °C
COC(=O)c1ccsc1N	79 °C
N#CCC[Si](Cl)(Cl)Cl	33 to 34 °C
CCC12CC3CC(C1)CC(C(=O)O)(C3)C2	94 to 96 °C

SMILES	melting point
CC(=O)OC[C@H]1O[C@@H](O[C@H]2[C@H](OC(C)=O)[C@@H](OC(C)=O)[C@@H](OC(C)=O)O[C@@H]2COC(C)=O)[C@H](OC(C)=O)[C@@H](OC(C)=O)[C@@H]1OC(C)=O	230 °C
CC1=Nc2ccccc2C1(C)C#N (stereo unspecified)	73 °C
CSc1nc(C=O)ccc1C#N	140 °C
C#CCl	-126 °C
O=c1cc(C=C(O)C(F)(F)C(F)(F)F)[nH]c(=O)[nH]1	278 to 281 °C
O=C(CCl)c1ccc(O)c(O)c1	174 °C
CC1CCC(C(C)C)C(OC(=O)C(C)O)C1 (single isomer, unassigned; (-))	40 °C
NCCSS(=O)(=O)O	191 to 194 °C
C#CC1(O)CCC2C3CC=C4CC(O)CCC4(C)C3CCC21C (stereo unspecified)	248 °C
CCOC(=O)C(C)=O	-50 °C
CC(=O)OC[C@@H](OC(C)=O)[C@@H](OC(C)=O)[C@H](OC(C)=O)[C@@H](OC(C)=O)C(=O)O	109 to 111 °C
CCOC(=O)c1[nH]c(C)c(CC)c1C	87 to 88 °C
O=c1[nH]c2ccc([N+](=O)[O-])cc2c(=O)o1	259 to 263 °C
CCOC(=O)CC(=O)C(C)C	-9 °C
BrCCCCCCCBr	41.7 °C
FC(Cl)=C(F)Cl	-130 °C
FC(F)C(F)(F)OCC(Cn1cncn1)c1ccc(Cl)cc1Cl (stereo unspecified)	6 °C
CC(C)(C)OC(=O)NCc1ncccc1F	56 to 58 °C
CCCCOC(=O)C(=O)C1C(C)CC2C3CC(F)C4=CC(=O)C=CC4(C)C3C(O)CC21C (stereo unspecified)	195 °C
FC(F)(Cl)CCl	-101 °C
C1CCNC1	-57.8 °C
C[C@]12CCC(=O)C[C@@H]1CCC1=C2CC[C@@H]2C(=O)CC[C@H]12	137 to 138 °C
CC1=C2C3OC(=O)C(C)C3C(O)CC2(C)C=CC1=O (stereo unspecified)	203 °C
Oc1c(Br)cc(F)cc1Br	55 °C
O=C1CC(c2ccccc2)=NO1	150 to 154 °C

The remaining lines, values ahead:

melting point	SMILES
158 °C	Cc1ccc(O)cc1N
112 to 115 °C	CNC(C)=C(C(=O)OC)C(=O)c1cc(Cl)nc(Cl)c1
48 °C	COc1ccc(O)cc1C(C)(C)C
196 °C	Cc1cccc(N/N=C(\C#N)c2nc(-c3ccc(Cl)cc3)cs2)c1C
87.5 °C	CCCC(C)(C)C(=O)Nc1ccc(Cl)cc1
85 °C	Cc1ccc2oc(CCC(C)(O)c3ccccc3)c(-c3ccc(C)o3)c2c1 (stereo unspecified)
135 °C	CC(=O)c1cc(C)cc([N+](=O)[O-])c1O
101 °C	Cc1cc(C)cc(CC(=O)O)c1
59 °C	O=C(Cl)c1cccc(C(=O)Cl)n1
202 to 203 °C	c1cc(-c2cnc3ccccc3n2)cc(-c2cnc3ccccc3n2)c1
142 to 144 °C	Nc1ccc(-n2cncn2)cc1
40 to 42 °C	COc1ccc(SSc2ccc(OC)cc2)cc1
175 to 177 °C	NC(=S)Nc1ccc(Oc2ccccc2)cc1
300 °C	NC(=O)c1ccc(C(=O)O)cc1
210 °C	CN(C)c1ccc(C=Cc2nc3ccccc3s2)cc1
100 to 109 °C	Cc1ccccc1C1Cc2ccccc2C(O)O1 (stereo unspecified)
130 °C	Cn1nc(-c2ccco2)cc1C(=O)O
360 °C	N#Cc1ccc2c(c1)[N+]([O-])=C(c1ccc(C3=[N+]([O-])c4cc(C#N)ccc4C3=O)cc1)C2=O
181 °C	CN(C)c1ccc(C=C2C=C(c3ccccc3)OC(c3ccccc3)=C2)cc1
267 °C	C/C(=N\N=C1C(=O)Nc2ccccc21)c1c(O)c2ccccc2n(-c2ccccc2)c1=O
135 to 136 °C	CC(=O)N1C(=O)N2CCc3ccccc3C2(c2ccc(Cl)cc2)C1=O (stereo unspecified)
77 °C	COC(=O)c1ccc2ccccc2c1
300 to 301 °C	O=C(O)c1ccc(-c2cnco2)cc1
85 to 87 °C	CCCC(=O)c1ccc(NC(C)=O)cc1O
197 to 198 °C	O=C(c1ccc(O)cc1)c1ccc(O)cc1O
112 °C	Cc1ccc(C(C)(Cl)C(=O)O)cc1 (stereo unspecified)

melting point	SMILES
151 to 152 °C	CC(Nc1ccccn1)=C(C#N)C(=O)c1ccccc1
257 to 259 °C	CCOC(=O)c1cn[nH]c1NC(=O)Nc1cccc(Cl)c1
170 °C	CCOC(=O)Oc1c(-c2ccccc2)[nH]c2cc([N+](=O)[O-])ccc12
174 to 175 °C	Cc1nccc(-c2cccc(S(=O)(=O)Cl)c2)n1
154 to 158 °C	O=[N+]([O-])c1ccc(-c2csc(CCl)n2)cc1
87 to 89 °C	CCOC(=O)c1sc(-c2ccc(C(F)(F)F)cc2)nc1C
300 °C	O=C1c2ccc(O)cc2C(=O)c2ccc(O)cc21
133 to 134 °C	CCOC(=O)c1cn2c(n1)sc1ccccc12
114 °C	CCCCCCCCCCOc1ccc(C(=O)O)cc1
290 to 295 °C	N#CC(C#N)=C1CC(c2ccc(Cl)cc2)=C(C#N)C(=N)N1c1ccccc1
33 to 38 °C	COC(=O)c1cccc(Cl)c1Cl
90 to 93 °C	O=C(O)Cc1coc2ccccc12
238 °C	Cn1c(/C(C#N)=N/Nc2ccc([N+](=O)[O-])cc2)nc2ccccc21
279 °C	Cn1c(=O)c(C2=NNC(=O)C2=CNc2ncccn2)c(O)c2ccccc21
162 °C	O=C(O)c1ccc(Oc2ccccc2)cc1
208 °C	Cc1ccc2[nH]c3ccccc3c2c1
98 °C	CCOc1ccc(-c2nnc3n2NC(c2ccc([N+](=O)[O-])cc2)S3)cc1 (stereo unspecified)
180 °C	O=C(O)c1cc2sccc2[nH]1
142 to 145 °C	c1ccc2c(c1)-c1ccccc1C2c1ccncc1
70 °C	N#Cc1c(F)cccc1Sc1ccc(Cl)cc1
97 to 98 °C	Cc1noc(-c2ccc(Br)cc2)n1
97 °C	CCOc1cccc(NC(C)=O)c1
232 to 233 °C	CCOC(=O)c1cc2c(=O)oc3ccccc3c2nc1NC
146 °C	COc1cc(NS(=O)(=O)c2ccc(N)cc2)nc(C)n1
207 °C	COc1cc(C(=O)O)ccc1F
